This note sets out measurements from patent US6593306B1, “Methods for modulation and inhibition of telomerase” (Board of Regents, The University of Texas Systems, priority 1995, dated 2003).

Entries after “also recorded” stand apart in the source; their conditions may differ. Where only a bound is given, the exact number is not on record here.

Assay [1] deals with T1, human 293 cell telomerase (Homo sapiens, UniProt O14746).
T1 construct: with 20 μl of S100 enzyme extract; endogenous in cells; host or cells: 293 cells (transformed human embryonic kidney), S100 extract
Briefly: Conventional telomerase assay (32P-dGTP as radiolabel substrate). Format: biochemical. The settings on record: for Inhibition of 293 Telomerase, Conventional Assay *dGTP: up to 2 mM. On the procedure: Telomerase was prepared from transformed human embryonic kidney 293 cell line. Human embryonic kidney 293 cells were grown in Joklik's modified MEM niedium (Sigma, St Louis, Mo.) supplemented with 5% fetal bovine serum at 37° C. in a humidified atmosphere with 5% CO2. The cells were subcultured at 1-2×10^5 cells/ml twice a week. When the cells grew to approximately 1×10^6 cells/ml, the cells (˜2×10^9 cells) were centrifuged and transferred into polypropylene centrifuge (50 ml) tubes and kept on ice. The cells were then centrifuged in a (Beckman GS-6R) centrifuge at 1200 RPM for 10 minutes at 4° C., and resuspended in PBS. The washed cells were resuspended in 15 ml Hypobuffer Mix (10 mM HEPES, pH 8.0, 3 mM KCl, 1 mM MgCl2, 1 mM dithiothreitol, 1 μM leupeptin, 0.1 mM PMSF, 10 μM pepstatin, 0.83 μg/ml chymostatin, 0.83 μg/ml antipain, and 43.2 units/ml RNase Guard) and centrifuged. The cell pellets were resuspended in 0.75×volumes Hypobuffer [Hypobuffer Mix+40 units/ml RNase Guard (Pharmacia, N.J.) to allow the cells to swell. The cell suspensions were homogenized to allow the telomerase to “leak” into the cytosolic fraction. The lysate was then poured into new, autoclaved, 3 ml polyallomer ultracentrifuge tubes and centrifuged at 100,000×g for 1 hour at 4° C. A top lipid layer was carefully removed and discarded, and the supernatant was collected. 1/50 of the volume of 5 M NaCl was added to the clear supernatant fluid to achieve a final concentration of 0.1 M. Sterile glycerol was added until the final glycerol concentration was 20%. The enzyme solution was aliquoted into Eppendorf tubes and quickly frozen in liquid nitrogen and stored at −70° C.
The assay is based on the ability of the telomerase enzyme in the S100 fractions to recognize an 18-base DNA primer with the DNA sequence (TTAGGG)3. DNA polymerization initiates from the 3′-OH group of the oligonucleotide. By reading from its complementary internal RNA template, telomerase adds a repeated set of 5′-TTAGGG-3′ to the original 18-base primer. Non-synchronous “starts” and “terminations” among the different enzyme complexes result in a degenerative set of different length DNA primers occurring in 6-base increments. Incorporation of [α-^32P]dGTP at the guanine positions of the 5′-TTAGGG-3′ sequence allows the newly synthesized DNA fragments to be visualized by autoradiography. The resulting image forms the characteristic “ladder” structure that is used to identify telomerase activity. The images are scanned using a phosphoimager or laser densitometer (Molecular Dynamics, Sunnyvale, Calif.). Comparisons of the total volumes under the corresponding peaks are used to quantitate the total amount of [α-^32P] incorporated in the primer extension reaction.
The telomerase assay was initiated by mixing 20 μl of 2×reaction mix (100 mM Tris-OAc, pH 8.5, 100 mM KOAc, 10 mM β-mercaptoethanol, 2 mM spermidine, 2 mM MgCl2, 2 mM dATP, 2 mM dTTP, 2 μM oligo primer, potential inhibitors of interest at the appropriate concentration, and 50 μCi [α^32-P]dGTP) with 20 μl of S100 enzyme extract. The reaction mixture was then incubated at 30° C. for 1 hour. The reaction was stopped by incubating sequentially with 50 μl of the stop solution (10 mM Tris pH 7.5, 20 mM EDTA, 0.1 mg/ml RNase A) and 50 μl of deproteinase solution (10 mM Tris pH 7.5, 0.5% SDS, 0.3 mg/ml Proteinase K). The mixture was extracted with 50% phenol/50% chloroform (v/v). The DNA was then precipitated by adding 2.5×volumes of cold EtOH and letting it stand overnight at −70° C. The DNAs were separated on an 8% polyacrylamide/7M urea denaturing gel at 1600 V for 1.5 hours. The gel was dried and exposed to Kodak XAR-5 film to gel in −70° C. Typical autoradiographic exposures required 3-14 days.

Assay [2] addresses T2, human telomerase (Homo sapiens, UniProt O14746).
T2 construct: telomerase in S100 extracts of transformed human fetal kidney tumor 293 cells (a processive telomerase); endogenous in cells; host or cells: human cells, (S100 extract)
Briefly: Cell-free telomerase inhibition, conventional or modified assay not stated. Format: biochemical. On the procedure:
Selected nucleoside triphosphates were tested in one or both of the “conventional” or “modified” telomerase assays described in Methods using the human processive and the CHO non-processive telomerases. Initially, three chain-terminators were selected: 2′,3′-dideoxythymidine triphosphate (ddTTP), 3′-fluoro-2′,3′-dideoxythymidine triphosphate (F-ddTTP), and 3′-azido-2′-, 3′-dideoxythymidine triphosphate (AZ-ddTTP) as prototype agents to investigate whether they could inhibit telomerase activity. The three compounds are dTTP analogs without a 3′-OH group for subsequent chain elongation. They may either incorporate into the telomere sequence and terminate further chain elongation or compete directly with dTTP for the substrate binding site in the telomerase reaction. In either case, telomerase activity is inhibited.

The test system of assay [3] is transformed human embryonic kidney 293 cells. Briefly: Growth inhibition (MTT), 293 cells. Format: cell-based. The settings on record: HEK293, 144 h, 6 days. How it is done:
(§1) Exponentially growing cells (1-2×10^3 cells, unless specified otherwise) in 0.1 ml medium were seeded on day 0 in a 96-well microtiter plate. On day 1, 0.1 ml aliquots of medium containing graded concentrations of test analogs were added in duplicate to the cell plates. After incubation at 37° C. in a humidified incubator for 6 days, the plates were centrifuged briefly and 100 μl of the growth medium was removed. Cell cultures were incubated with 50 μl of 3-(4,5-dimethylthiazol-2-yl)-2,5-diphenyl-tetrazolium bromide, (MTT) at a concentration of 1 mg/ml in Dulbecco's phosphate buffered saline (PBS)) for 4 hr at 37° C. The resulting purple formazan precipitate was solubilized with 200 μl of 0.04 N HCl in isopropyl alcohol. Absorbance was monitored in a BioRad Model 3550 Microplate Reader at a test wavelength of 570 nm and a reference wavelength of 630 nm. The absorbance was transferred to a PC 486 computer. The IC50 values were determined by a computer program (EZ-ED50) that fits all the data to the following four-parameter logistic equation: [formula]
(§2) where Amax is the absorbance of control cells, Amin is the absorbance of cells in the presence of highest agent concentration, Y is the observed absorbance, X is the agent concentration, IC50 is the concentration of agent that inhibits the cell growth by 50% of control cells (based on the absorbance) and n is the slope of the curve.
(§3) This is due to the extracellular dephosphorylation of the mono-, di-, or triphosphates by […] or 5′-nucleotidase back to the nucleoside. With this in mind, the inventors used only nucleosides rather than nucleoside triphosphates in these studies. Cultured tumor cells were incubated with selected nucleosides at graded concentrations for 6 days and the growth inhibition was determined by the standard MTT assay.

For assay [4], the system named is human colon carcinoma HT29 cells. In words: Growth inhibition (MTT), HT29 cells. The format is cell-based. Conditions: HT-29, 144 h, 6 days. On the procedure:
as §1, §2, §3

T1 sequence (O14746 whole entry): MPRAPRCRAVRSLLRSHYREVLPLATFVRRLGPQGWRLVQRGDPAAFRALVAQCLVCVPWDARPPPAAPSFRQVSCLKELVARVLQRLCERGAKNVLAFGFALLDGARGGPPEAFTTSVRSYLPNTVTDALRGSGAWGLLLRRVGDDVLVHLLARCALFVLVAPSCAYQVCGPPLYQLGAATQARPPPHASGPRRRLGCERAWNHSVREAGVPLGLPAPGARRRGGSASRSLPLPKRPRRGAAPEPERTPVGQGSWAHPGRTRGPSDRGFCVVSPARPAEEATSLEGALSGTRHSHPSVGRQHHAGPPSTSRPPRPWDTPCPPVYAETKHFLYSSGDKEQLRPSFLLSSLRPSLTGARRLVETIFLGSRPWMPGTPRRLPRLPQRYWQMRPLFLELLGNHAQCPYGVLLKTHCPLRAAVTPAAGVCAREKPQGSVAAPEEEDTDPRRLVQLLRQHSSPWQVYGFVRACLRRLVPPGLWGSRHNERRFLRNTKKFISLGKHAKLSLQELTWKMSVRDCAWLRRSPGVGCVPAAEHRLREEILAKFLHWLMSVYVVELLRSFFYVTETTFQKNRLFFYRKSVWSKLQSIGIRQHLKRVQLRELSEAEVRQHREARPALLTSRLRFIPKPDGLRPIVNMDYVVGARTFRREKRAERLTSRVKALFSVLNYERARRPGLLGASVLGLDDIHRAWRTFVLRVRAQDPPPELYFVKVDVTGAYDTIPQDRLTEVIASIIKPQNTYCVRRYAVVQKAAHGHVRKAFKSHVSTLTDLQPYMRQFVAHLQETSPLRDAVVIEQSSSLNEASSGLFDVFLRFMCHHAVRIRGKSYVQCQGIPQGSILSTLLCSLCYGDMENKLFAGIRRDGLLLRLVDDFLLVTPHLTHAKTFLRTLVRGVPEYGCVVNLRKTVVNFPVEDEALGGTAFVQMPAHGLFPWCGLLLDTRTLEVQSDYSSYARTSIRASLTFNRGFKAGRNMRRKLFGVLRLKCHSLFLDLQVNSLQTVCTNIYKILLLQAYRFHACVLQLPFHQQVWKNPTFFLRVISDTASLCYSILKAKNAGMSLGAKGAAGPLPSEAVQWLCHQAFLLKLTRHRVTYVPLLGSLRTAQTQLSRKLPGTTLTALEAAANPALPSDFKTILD
T1 sequence (O60832 whole entry partner): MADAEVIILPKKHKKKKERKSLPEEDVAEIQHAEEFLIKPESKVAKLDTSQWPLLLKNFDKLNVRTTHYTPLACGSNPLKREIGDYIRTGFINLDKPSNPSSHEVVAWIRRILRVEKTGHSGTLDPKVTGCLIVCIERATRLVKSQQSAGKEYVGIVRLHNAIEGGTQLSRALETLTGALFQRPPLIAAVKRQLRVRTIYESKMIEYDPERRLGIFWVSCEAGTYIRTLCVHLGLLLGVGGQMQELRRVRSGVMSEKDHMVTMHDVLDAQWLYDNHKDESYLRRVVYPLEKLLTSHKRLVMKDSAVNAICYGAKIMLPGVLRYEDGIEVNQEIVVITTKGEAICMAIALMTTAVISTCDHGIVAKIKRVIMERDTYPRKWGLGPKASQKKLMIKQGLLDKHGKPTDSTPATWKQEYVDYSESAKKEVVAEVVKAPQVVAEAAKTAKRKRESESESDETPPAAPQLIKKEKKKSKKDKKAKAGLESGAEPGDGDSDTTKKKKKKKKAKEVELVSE
T1 sequence (Q9NPE3 whole entry partner): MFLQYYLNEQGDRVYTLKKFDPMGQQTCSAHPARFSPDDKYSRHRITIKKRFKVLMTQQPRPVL
T1 sequence (Q9NX24 whole entry partner): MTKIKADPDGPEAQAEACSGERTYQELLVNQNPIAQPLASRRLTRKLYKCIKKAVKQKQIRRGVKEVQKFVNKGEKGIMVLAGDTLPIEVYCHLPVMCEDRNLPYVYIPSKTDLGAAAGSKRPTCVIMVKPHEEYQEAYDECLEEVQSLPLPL
T1 sequence (Q9NY12 whole entry partner): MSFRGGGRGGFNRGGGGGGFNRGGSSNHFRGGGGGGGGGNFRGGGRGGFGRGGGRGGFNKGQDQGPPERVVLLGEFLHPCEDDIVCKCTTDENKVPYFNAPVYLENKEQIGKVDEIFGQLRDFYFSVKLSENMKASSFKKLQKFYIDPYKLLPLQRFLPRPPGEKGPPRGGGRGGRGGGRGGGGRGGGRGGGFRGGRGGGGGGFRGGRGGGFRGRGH
T2 sequence (O14746 whole entry): as the sequence (O14746 whole entry) above
T2 sequence (O60832 whole entry partner): as the sequence (O60832 whole entry partner) above
T2 sequence (Q9NPE3 whole entry partner): as the sequence (Q9NPE3 whole entry partner) above
T2 sequence (Q9NX24 whole entry partner): as the sequence (Q9NX24 whole entry partner) above
T2 sequence (Q9NY12 whole entry partner): as the sequence (Q9NY12 whole entry partner) above

What is called IC50 is the concentration needed to halve the response being measured. Take “5-Allylamino-2′-Deoxyuridine-5′-Triphosphate [NA021]”: the “% of Control” value was 51% in assay [1] (0.125 mM); 70% in assay [1] (0.25 mM); 43% in assay [1] (0.5 mM); 33% in assay [1] (1.0 mM); 30% in assay [1] (2.0 mM); 100% in assay [1] (10 mM (so in the source)). Further, the IC50 in assay [1] (293 cell telomerase) was ~500 µM. The “Inhibition of 293 Telomerase, Conventional Assay *dGTP” value (shortened to “Inhibition of 293 Telomerase”) in assay [1] is listed as “concentration dependent inhibition; also recorded: the telomerase activity is weak)”.
As to `Cc1cn([C@H]2C[C@H](O)[C@@H](COP(=O)(O)OP(=O)(O)OP(=O)(O)O)O2)c(=O)[nH]c1=S` [4-thiothymidine triphosphate], in assay [2] (1 mM), the “inhibition of human telomerase activity” value is “completely”.
In the case of `Nc1ncnc2c1c(I)cn2[C@H]1C[C@H](O)[C@@H](CO)O1` [FS004, 7-Iodo-7-Deaza-2′-Deoxyadenosine], the 50% inhibitory concentration (IC50) turned out to be 0.319 µM in assay [3] and 1.88 µM in assay [4].
In the case of `N#Cc1cn([C@H]2C[C@H](O)[C@@H](CO)O2)c2ncnc(N)c12` [FS005, 7-Cyano-7-Deaza-2′-Deoxyadenosine], the IC50 in assay [3] was 18.2 µM; in assay [4], 51.2 µM.
Regarding `Nc1ncnc2c1c(I)nn2[C@H]1C[C@H](O)[C@@H](CO)O1` [FS015, 7-Iodo-7-Deaza-8-Aza-2′-Deoxyadenosine], the IC50 was determined as 1.88 µM in assay [3] and 8.09 µM in assay [4].
With `Nc1ncnc2c1c(Cl)cn2[C@H]1C[C@H](O)[C@@H](CO)O1` [FS017, 7-Chloro-7-Deaza-2′-Deoxyadenosine], the IC50 in assay [3] worked out at 3.32 µM; in assay [4], 15.6 µM.
In the case of `Nc1ncnc2c1c(Br)cn2[C@H]1C[C@H](O)[C@@H](CO)O1` [FS018, 7-Bromo-7-Deaza-2′-Deoxyadenosine], the IC50 in assay [3] was determined as 1.14 µM; in assay [4] it was 0.963 µM.
Consider `Nc1nc2c(c(Cl)cn2[C@H]2C[C@H](O)[C@@H](CO)O2)c(=O)[nH]1` [FS019, 7-Chloro-7-Deaza-2′-Deoxyguanosine], for which the IC50 in assay [3] stood at 237 µM; in assay [4], 109 µM.
For the molecule `Nc1nc2c(c(Br)cn2[C@H]2C[C@H](O)[C@@H](CO)O2)c(=O)[nH]1` [FS020, 7-Bromo-7-Deaza-2′-Deoxyguanosine], the IC50 in assay [3] is 180 µM; in assay [4], 170 µM.
As to `Nc1nc2c(c(I)cn2[C@H]2C[C@H](O)[C@@H](CO)O2)c(=O)[nH]1` [FS021, 7-Iodo-7-Deaza-2′-Deoxyguanosine], the IC50 in assay [3] is 63.4 µM; in assay [4], 78.8 µM.
Regarding `Cc1cn([C@H]2C[C@H](O)[C@@H](CO)O2)c2nc(N)[nH]c(=O)c12` [FS022, 7-Methyl-7-Deaza-2′-Deoxyguanosine], the IC50 in assay [3] is 489 µM; in assay [4], 196 µM.
Take `Cc1cn([C@H]2C[C@H](O)[C@@H](CO)O2)c2ncnc(N)c12` [FS024, 7-Methyl-7-Deaza-2′-Deoxyadenosine]: the IC50 in assay [3] was 109 µM; in assay [4], 99.6 µM.
For the molecule `Cc1cn([C@H]2CC[C@@H](COP(=O)(O)OP(=O)(O)OP(=O)(O)O)O2)c(=O)[nH]c1=O` [NA001, 2′,3′-Dideoxythymidine-5′-Triphosphate], the IC50 in assay [1] (293 cells telomerase, competing dTTP 1-2 mM, inhibitor 0 to 2 mM) was ~500 µM.
For the molecule `Nc1nc2c(ncn2[C@@H]2O[C@H](COP(=O)(O)OP(=O)(O)CP(=O)(O)O)[C@@H](O)[C@H]2O)c(=O)[nH]1` [NA011, Guanosine-5′-β,γ-Methylene Triphosphate], the “% of Control” value in assay [1] (0.125 mM) worked out at 82%; in assay [1] (0.25 mM) it was 63%; in assay [1] (0.5 mM), 86%; in assay [1] (1.0 mM) it was 70%; in assay [1] (2.0 mM), 65%. Moreover, the “Inhibition of 293 Telomerase” value in assay [1] was “inactive; also recorded: No Inhibition (up to 2 mM)”.
Turning to `Nc1nc2c(ncn2[C@H]2C[C@H](O)[C@@H](COP(=O)(O)OP(=O)(O)CP(=O)(O)O)O2)c(=O)[nH]1` [NA014, 2′-Deoxyguanosine-5′-β,γ-Methylene Triphosphate], the IC50 in assay [2] (Summary values, assay variant not stated, read-out: IC50) was 102 µM; in assay [1] (293 cell telomerase), < 125 µM. The remaining activity at 125 µM in assay [1] (0.125 mM, read-out: % of Control) is 60%. Also, the remaining activity at 250 µM in assay [1] (0.25 mM, read-out: % of Control) worked out at 38%. The remaining activity at 500 µM in assay [1] (0.5 mM, read-out: % of Control) stood at 42%. For the same molecule, in assay [1] (1.0 mM, read-out: % of Control), the remaining activity at 1000 µM stood at 40%. Besides, the remaining activity at 2000 µM in assay [1] (2.0 mM, read-out: % of Control) stood at 28%.
In the case of `Nc1nc2c(ncn2[C@H]2C[C@H](O)[C@@H](COP(O)(O)=S)O2)c(=O)[nH]1` [NA015, 2′-Deoxyguanosine-5′-Phosphorothioate], the “Inhibition of 293 Telomerase” value in assay [1] is given as “No Inhibition (up to 2 mM)”.
Consider `Nc1ncnc2c1ccn2[C@H]1C[C@H](O)[C@@H](CO)O1` [NA024, 7-Deaza-2′-Deoxyadenosine], for which the results for the IC50 in assay [3] and in assay [4] were 533 µM and 146 µM, respectively.
On the same counts, the results for `Nc1nc2c(ccn2[C@H]2C[C@H](O)[C@@H](CO)O2)c(=O)[nH]1` [NA025, 7-Deaza-2′-Deoxyguanosine] are 130 µM and 102 µM.
In the same order, the values of `Cn1c(N)nc2c(ccn2[C@H]2C[C@H](O)[C@@H](CO)O2)c1=S` [NA027, 1-Methyl-6-Thio-7-Deaza-2′-Deoxyguanosine] are 161 µM and 310 µM.
